Where two headings read alike, the source gives them in different places.
Experiments:
[1] = target: human epidermal growth factor receptor 2 (HER2) (human (endogenous in SKBR3, MCF7, T47D)) (UniProt P04626); assay: radioligand binding; saturation binding of 99mTc-labeled peptide (0.1-30 nM) to ~300,000 T47D cells in low-serum media, 60 min, room temperature; non-specific binding with ~200-fold molar excess of unlabeled peptide; nonlinear regression
[2] = target: human epidermal growth factor receptor 2 (HER2) (human (endogenous in SKBR3, MCF7, T47D)) (UniProt P04626); assay: radioligand binding; saturation binding of 99mTc-labeled peptide (0.1-30 nM) to ~300,000 MCF7 cells in low-serum media, 60 min, room temperature; non-specific binding with ~200-fold molar excess of unlabeled peptide; nonlinear regression
[3] = tested on: MCF7 cells; assay: Cellular internalization (acid wash); assay type: cell-based, human; conditions: % of cell-surface bound radiopeptide internalized, acidic buffer pH 5.0, 10 min, 37 °C
Description: (§1) In order to differentiate between cell-surface bound and cellular internalized radioactivity, cell pellet was treated with 0.3 mL of acidic buffer (0.02 M sodium acetate in saline, pH 5.0) for 10 min at 37 °C at the end of the binding experiment, followed by centrifugation and washing with cold acidic buffer. The amount of cell surface-bound (acid-wash) and internalized (acid-resistant) radioactivity was determined by measuring the radioactivity of the supernatant and the cell-pellet, respectively, in a γ-counter.

[4] = tested on: T47D cells; assay: Cellular internalization (acid wash); assay type: cell-based, human; conditions: % of cell-surface bound radiopeptide internalized, acidic buffer pH 5.0, 10 min, 37 °C
Description: as §1

[5] = tested on: MDA-MB-231 breast xenografts; assay: In vivo tumor targeting, MDA-MB-231 xenografts (negative control); conditions: nude mice, HER2-/MUC1-negative MDA-MB-231 xenografts, mean ± SD
[6] = assay type: physicochemical
Description: Table 1 Characterization of ^99mTc-HER2 and ^99mTc-MUC1 peptides. | column: Log P (Octanol/Saline)

[7] = Radio-HPLC retention time on C18 reversed-phase column; assay type: physicochemical; conditions: Econosphere C18 (10 μm, 250 × 4.6 mm), 0.1% TFA water/CH3CN, 5 to 95% B over 30 min, 1.1 mL/min, longer retention ascribed to higher lipophilicity
Description: The HPLC analysis and purification of the peptides were performed on a Shimadzu HPLC system using Econosphere C18 reversed-phase column (10 μm, 250 × 4.6 mm, Alltech, Deerfield, IL, USA). For HPLC experiments, a gradient solvent system of 0.1% (v/v) TFA in water (solvent A) and 0.1% (v/v) TFA in CH3CN (solvent B) at a flow rate of 1.1 mL/min was used. The HPLC gradient began with a solvent composition of 95% A and 5% B from 0 to 2.5 min followed by a linear gradient of 95% A and 5% B to 5% A and 95% B over 30 min. The gradient remained at this position for 3 min before switching back to 95% A and 5% B for another 7 min. The main peak of each radiolabeled peptide was isolated, and acetonitrile then evaporated under a stream of nitrogen gas. The HPLC system (Shimadzu Corporation, Kyoto, Japan) was equipped with a UV-VIS detector (Shimadzu Corporation, Kyoto, Japan) set at 220 nm, a Flow-count γ-radioactivity detection system (Bioscan Inc., Washington, DC, USA) and the Lauralite HPLC chromatogram analysis program (LabLogic Systems Ltd., Sheffield, UK). Radiochemical purity was estimated by evaluating radioactivity peaks eluted for each ^99mTc-labeled peptide from the HPLC column and calculating the area under the peak (ROI). The HPLC-purified compounds were reconstituted in sterile saline and used for in vitro and in vivo experiments.

[8] = parameters: species or system Balb/c mice; conditions: mouse, in vivo, iv
Description: Approval for the animal protocol used in this study was obtained from the Institutional Animal Care and Use Committee. Animal studies were conducted according to the international regulations governing the safe and proper use of laboratory animals [48]. In vivo biodistribution studies were performed on healthy Balb/c mice (n = 3–5 in each group, body mass 19–22 g) at 1 and 4 h after i.v. injection of the HPLC-purified radiopeptide (100 μL, 10–15 μCi, total peptide dose ~10 ng) via the lateral tail vein as described previously [54]. Mice were euthanized by cervical dislocation at specified times, the selected tissues/organs were removed, and radioactivity was measured in a γ-counter. Uptake of radioactivity in the tissues and organs was expressed as the percent injected dose per gram (% ID/g) of tissue/organ, which was calculated by comparison with standard solutions representing 10% of the injected dose per animal. For the clearance studies, radioactivity in the urine with bladder is expressed as the percent of the injected dose per organ (% ID/organ).

[9] = tested on: T47D tumor xenografts; conditions: for tumor uptake: nude mice, mean ± SD
Description: (§3) In vivo biodistribution studies were performed on healthy Balb/c mice (n = 3–5 in each group, body mass 19–22 g) at 1 and 4 h after i.v. injection of the HPLC-purified radiopeptide (100 μL, 10–15 μCi, total peptide dose ~10 ng) via the lateral tail vein as described previously [54]. Mice were euthanized by cervical dislocation at specified times, the selected tissues/organs were removed, and radioactivity was measured in a γ-counter. Uptake of radioactivity in the tissues and organs was expressed as the percent injected dose per gram (% ID/g) of tissue/organ, which was calculated by comparison with standard solutions representing 10% of the injected dose per animal. For the clearance studies, radioactivity in the urine with bladder is expressed as the percent of the injected dose per organ (% ID/organ).
(§4) Approximately 7 million HER2-positive SKBR3 cells and MUC1-positive MCF7 and T47D breast tumor xenografts were injected subcutaneously into a group of nude female mice and allowed to grow for 4 to 6 weeks. After sufficient growth of tumors, the animals were sacrificed and the uptake of ^99mTc-HER2 and ^99mTc-MUC1 by the tumors and other major organs was determined by biodistribution experiments, as described above.

[10] = tested on: MCF7 breast cancer cell line; assay: In vitro tumor cell binding (saturation, Kd); parameters: species or system human; conditions: ~300,000 cells, 0.1-30 nM radiopeptide, 60 min, room temperature, duplicate, non-specific with ~200-fold excess unlabeled peptide, mean ± SD
Description: (§2) The cell-binding studies of ^99mTc-labeled HER2 and MUC1 peptides into respective HER2 and MUC1-positive human breast cancer cell lines (American Type Culture Collection, Rockville, MD, USA) was performed according to the method described previously. In brief, ~300,000 cells (in 0.3 mL low-serum media) were incubated with various amounts of radiopeptides, ranging between 0.1 and 30 nM of peptides (prepared from the serial dilutions of HPLC-purified radiopeptides), in duplicate for 60 min at room temperature. Incubation was terminated by dilution with cold saline (0.3 mL) and the cells were pelleted by centrifugation. The cell-pellets was then rapidly washed with cold saline to remove any unbound peptide and centrifuged to collect supernatants. Radioactivity in the cell-pellet and the washings was measured in a γ-counter. Non-specific binding was determined in the presence of ~200-fold molar excess of unlabeled peptide. Specific binding was calculated by subtracting the non-specifically bound radioactivity from that of the total binding. The dissociation constant (Kd) was calculated using a plot of specific cell-bound radioactivity versus increasing concentrations of the radiopeptide using a nonlinear regression analysis program (GraphPad Prism Software Inc., San Diego, CA, USA).

[11] = tested on: T47D breast cancer cell line; assay: In vitro tumor cell binding (saturation, Kd); parameters: species or system human; conditions: for Kd: T47D, ~300,000 cells, 0.1-30 nM radiopeptide, 60 min, room temperature, duplicate, non-specific with ~200-fold excess unlabeled peptide, mean ± SD
Description: as §2

[12] = tested on: MCF7 tumor xenografts; conditions: for tumor uptake: nude mice, mean ± SD
Description: as §3, §4
(§5) In general, for preclinical gamma camera imaging, each tumor-bearing mouse model was intravenously injected with ~200 μCi of ^99mTc-HER2 or ^99mTc-MUC1 peptide through the tail vein. Mouse static planar images were then acquired at 1 h after the radiotracer injection by a portable hand-held γ-camera equipped with CsI(Tl) scintillation detector, with intrinsic spatial resolution of 2.45 mm (IP guardian 2, Li-Tech, Italy).

[13] = tested on: SKBR3 cells; assay: Cellular internalization (acid wash); assay type: cell-based, human; conditions: % of cell-surface bound radiopeptide internalized, acidic buffer pH 5.0, 10 min, 37 °C
Description: as §1

[14] = tested on: HER2-positive SKBR3 tumor xenografts; conditions: for tumor uptake: nude mice, n = 3-5, mean ± SD
Description: as §3, §4, §5

[15] = tested on: HER2-positive SKBR3 breast cancer cell line; assay: In vitro tumor cell binding (saturation, Kd); parameters: species or system human
Description: as §2

[16] = target: p185HER2/neu; conditions: binding to p185HER2/neu; ref [22],[23],[24]; cited from earlier work
Description: AHNP peptide was able to disable HER2 tyrosine kinases in vitro and in vivo similar to the monoclonal antibody from which it was derived. […] It has been shown that AHNP diminished the early tyrosine phosphorylation of p185HER2/neu, and inhibited proliferation of p185HER2/neu overexpressing tumor cells in ...

[17] = tested on: breast carcinoma xenografts; conditions: radiolabeled KCCYSL peptides, ref [8],[19]; cited from earlier work
Description: Several small peptide molecules have been developed in recent years for targeting HER2-positive breast cancer. For example, a 6-amino-acid containing peptide, KCCYSL, was discovered by the phage display method after in vitro selection with a recombinant ERBB2 extracellular domain. The KCCYSL peptide, derivatized with different metal chelators (i.e., DOTA, NOTA, CB-TE2A, and DAP) and radiolabeled with radionuclide metal ions (e.g., ^111In, ^64Cu, ^99mTc), has been successfully used for in vivo imaging of HER2 overexpressing tumor models. The tumor cell binding affinity (Kd) of KCCYSL for ...

[18] = MCF7 xenografts, 1 h p.i., unblocked

For “99mTc-HER2 hybrid peptide (Acetyl-Gly-Gly-Cys-ALA-Lys-Ile-Phe-Gly-Ser-Leu-Ala-Phe-Leu-Lys-Cys-Cys-Tyr-Ser-Leu-CONH2)”, which Kd [1] is on record?
The Kd was 169 nM.

What about the Kd [2] of the same substance?
The Kd was 158 nM.

For Ac-GGCEPDTRP-NH2 [^99mTc-MUC1], which “% Internalization” value [3] is on record?
Its value is 18.92 ± 2.16%.

And the “% Internalization” value [4]?
The value was 21.11 ± 2.95%.

And the tumor uptake ([5]; 1 h p.i.)?
Its tumor uptake is 0.64 ± 0.13 % ID/g.

And the tumor uptake ([5]; 4 h p.i.)?
Its tumor uptake is 0.41 ± 0.10 % ID/g.

And the “Log P (Octanol/Saline)” value [6]?
Its value is −2.22 ± 0.12.

What about the “HPLC Retention Time” value [7] of the same substance?
Its value is 14.10 min.

And the “radioactivity found in the urine” value [8]?
Its value is “up to 47.0 ± 6.28 % ID”.

And the tumor-to-blood ratio ([9]; T47D xenografts, 1 h p.i.)?
The tumor-to-blood ratio was 3.27.

What about the tumor-to-muscle ratio ([9]; T47D xenografts, 1 h p.i.) of the same substance?
The tumor-to-muscle ratio was 12.62.

What about the tumor-to-muscle ratio ([9]; T47D xenografts, 4 h p.i.) of the same substance?
Its tumor-to-muscle ratio is 11.40.

What about the “accumulation in the kidneys” value ([9]; mouse, in vivo) of the same substance?
Its value is 2.26 ± 0.36 % ID/g.

What about the “cleared from the kidneys” value ([9]; mouse, in vivo) of the same substance?
Its value is 48%.

And the hepatobiliary excretion ([9]; mouse, in vivo)?
The hepatobiliary excretion was “below 13 % ID”.

And the “initial accumulation in the kidneys” value ([9]; mouse, in vivo)?
Its value is 4.35 ± 1.0 % ID/g.

And the “radioactivity remaining in the blood circulation” value ([9]; mouse, in vivo)?
The value was 0.30 ± 0.07 % ID/g.

What about the tumor uptake ([9]; T47D xenografts, 1 h p.i.) of the same substance?
Its tumor uptake is 2.65 ± 0.54 % ID/g.

What about the tumor uptake ([9]; T47D xenografts, 4 h p.i.) of the same substance?
The tumor uptake was 1.14 ± 0.21 % ID/g.

What about the Kd [10] of the same substance?
The Kd was 10.3 ± 1.55 nM.

And the Kd [11]?
Its Kd is 3.48 ± 0.84 nM.

What about the “binding affinity higher to T47D cell line compared to MCF7 cell line” value ([11]; ratio of Kd values) of the same substance?
Its value is 3 fold.

And the tumor-to-blood ratio ([12]; MCF7 xenografts, 1 h p.i.)?
The tumor-to-blood ratio was 2.39.

What about the tumor-to-muscle ratio ([12]; MCF7 xenografts, 1 h p.i.) of the same substance?
Its tumor-to-muscle ratio is 18.47.

What about the tumor-to-blood ratio ([12]; MCF7 xenografts, 4 h p.i.) of the same substance?
Its tumor-to-blood ratio is 1.09.

And the tumor-to-muscle ratio ([12]; MCF7 xenografts, 4 h p.i.)?
Its tumor-to-muscle ratio is 11.20.

And the “washout from the tumors” value ([12]; MCF7 xenografts, over 4 h)?
Its value is 60%.

And the “tumor uptake, blocked” value ([12]; MUC1-positive (MCF7) xenografts, 100 μg of unlabeled MUC1 peptide 30 min before injection of radiopeptide)?
Its value is 1.05 ± 0.21 % ID/g.

And the “reduction of tumor uptake by blocking dose” value ([12]; MUC1-positive (MCF7) xenografts, 100 μg unlabeled MUC1 peptide 30 min before, P = 0.02)?
The value was “approximately 62%”.

And the “hepatobiliary excretion (liver + intestines)” value ([12]; mouse, in vivo)?
The value was “below 13 % ID”.

What about the “radioactivity excreted in the urine” value ([12]; mouse, in vivo) of the same substance?
The value was “up to 49 % ID”.

And the tumor uptake [12, 18]?
Its tumor uptake is 2.77 ± 0.63 % ID/g.

What about the tumor uptake ([12]; MCF7 xenografts, 4 h p.i.) of the same substance?
Its tumor uptake is 1.12 ± 0.30 % ID/g.

What about the “gamma camera imaging of tumor” value ([12]; nude mouse, MCF7 xenograft, 1 h p.i., ~200 μCi i.v.) of the same substance?
The value was “detectable in the image”.

What does the source list for “Acetyl-Gly^19-Gly^18-Cys^17-ALA^16-Lys^15-Ile^14-Phe^13-Gly^12-Ser^11-Leu^10-Ala^9-Phe^8-Leu^7-Lys^6-Cys^5-Cys^4-Tyr^3-Ser^2-Leu^1-CONH2 [^99mTc-HER2]”?
% Internalization [3]: 12.16 ± 3.20%; % Internalization [4]: 11.85 ± 2.83%; % Internalization [13]: 19.90 ± 5.35%; tumor uptake ([5]; 1 h p.i.): 0.66 ± 0.13 % ID/g; tumor uptake ([5]; 4 h p.i.): 0.31 ± 0.10 % ID/g; Log P (Octanol/Saline) [6]: 1.38 ± 0.06; HPLC Retention Time [7]: 20.0 min; tumor-to-blood ratio ([14]; SKBR3 xenografts, 1 h p.i.): 1.54; tumor-to-muscle ratio ([14]; SKBR3 xenografts, 1 h p.i.): 9.37; tumor-to-blood ratio ([14]; SKBR3 xenografts, 4 h p.i.): 1.34; tumor-to-muscle ratio ([14]; SKBR3 xenografts, 4 h p.i.): 8.71; washout from the tumors ([14]; SKBR3 xenografts, over 4 h): 57%; tumor uptake, blocked ([14]; SKBR3 xenografts, 100 μg of HER2 peptide 30 min before injection of radiopeptide): 1.07 ± 0.24 % ID/g; reduction of tumor uptake by blocking dose ([14]; SKBR3 xenografts, 100 μg of HER2 peptide 30 min before, P = 0.02): approximately 62%; hepatobiliary excretion (liver + intestines) ([14]; mouse, in vivo): below 15 % ID; kidney accumulation and retention ([14]; mouse, in vivo): up to 10 % ID/g; radioactivity excreted in the urine ([14]; mouse, in vivo): up to 41 % ID; tumor uptake ([14]; SKBR3 xenografts, 1 h p.i., unblocked): 2.81 ± 0.79 % ID/g; tumor uptake ([14]; SKBR3 xenografts, 4 h p.i.): 1.22 ± 0.25 % ID/g; gamma camera imaging of tumor ([14]; nude mouse, SKBR3 xenografts, 1 h p.i., ~200 μCi i.v.): detectable in the image; radioactivity found in the urine [8]: up to 40.0 ± 5.10 % ID; tumor uptake ([9]; T47D xenografts, 1 h p.i.): 1.25 ± 0.32 % ID/g; tumor uptake ([9]; T47D xenografts, 4 h p.i.): 0.80 ± 0.17 % ID/g; Kd [10]: 158 ± 24.6 nM; Kd [11]: 169 ± 22.3 nM; Kd ([15]; SKBR3, ~300,000 cells, 0.1-30 nM radiopeptide, 60 min, room temperature, duplicate, non-specific with ~200-fold excess unlabeled peptide, mean ± SD): 50 ± 14.2 nM; binding affinity higher for SKBR3 cells than MCF7 and T47D cell lines ([15]; ratio of Kd values): more than 3 fold; tumor uptake [12, 18]: 1.33 ± 0.41 % ID/g; tumor uptake ([12]; MCF7 xenografts, 4 h p.i.): 0.91 ± 0.22 % ID/g

For “FCDGFYACYADVGGG [AHNP, anti-HER2/neu peptidomimetic designed from heavy-chain CDR3 loop of trastuzumab]”, which Kd [16] is on record?
The Kd was 150 nM.

Which tumor uptake [17] does the source give for “KCCYSL [literature values for chelator-derivatized, radiolabeled forms]” here?
Its tumor uptake is “below 1 % ID/g”.
